Test results as given in patent US6274715A, “Tricyclic erythromycin derivatives” (priority 1997, dated 2001).

Tests used:
Assay type in all cases: cell-based
[1] = test system: STAPHYLOCOCCUS AUREUS ATCC 6538P; assay: In vitro antibacterial activity, MIC, BHI agar dilution; details: S. aureus ATCC 6538P, 35-37° C., 20 to 24 hours, unit assumed
[2] = test system: STAPHYLOCOCCUS AUREUS A5177; assay: as above; details: S. aureus A5177, unit assumed
[3] = test system: STAPHYLOCOCCUS AUREUS A-5278; assay: as above; details: S. aureus A-5278, unit assumed
[4] = test system: STAPHYLOCOCCUS AUREUS CMX 642A; assay: as above; details: S. aureus CMX 642A, unit assumed
[5] = test system: STAPHYLOCOCCUS AUREUS NCTC10649M; assay: as above; details: S. aureus NCTC10649M, unit assumed
[6] = test system: STAPHYLOCOCCUS AUREUS CMX 553; assay: as above; details: S. aureus CMX 553, unit assumed
[7] = test system: STAPHYLOCOCCUS AUREUS 1775; assay: as above; details: S. aureus 1775, unit assumed
[8] = test system: STAPHYLOCOCCUS EPIDERMIDIS 3519; details: S. epidermidis 3519; BHI agar; unit assumed
EN[…] ATCC 8043 = assay: In vitro antibacterial activity, MIC, BHI agar dilution; details: E. faecium ATCC 8043, unit assumed
Procedure, shortened: (§1)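 MIC was read visually as the lowest drug level with no growth, a slight haze or sparsely isolated colonies relative to a compound-free growth control. Organisms were spotted at 1:100 dilution (1:10 for slow-growing strains) onto Brain Heart Infusion agar containing serial compound dilutions and incubated 20 to 24 hours at 35-37° C.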

M[…] ATCC 4698 = assay: as above; details: M. luteus ATCC 4698, unit assumed
Procedure, shortened: as §1

M[…] ATCC 9341 = assay: as above; details: M. luteus ATCC 9341, unit assumed
Procedure, shortened: as §1

STR[…] 508 = assay: as above; details: S. agalactiae CMX 508, unit assumed
Procedure, shortened: as §1

[9] = test system: STREPTOCOCCUS BOVIS A-5169; assay: as above; details: S. bovis A-5169, unit assumed
[10] = test system: STREPTOCOCCUS PYOGENES EES61; assay: as above; details: S. pyogenes EES61, unit assumed
[11] = test system: STREPTOCOCCUS PYOGENES 930; assay: as above; details: S. pyogenes 930, unit assumed
[12] = test system: STREPTOCOCCUS PYOGENES PIU 2548; assay: as above; details: S. pyogenes PIU 2548, unit assumed
ESCHERICHIA COLI JUHL = details: E. coli JUHL; BHI agar; unit assumed
ESCHERICHIA COLI SS = assay: In vitro antibacterial activity, MIC, BHI agar dilution; details: E. coli SS, unit assumed
ESCHERICHIA COLI DC-2 = assay: as above; details: E. coli DC-2, unit assumed
ESCHERICHIA COLI H560 = assay: as above; details: E. coli H560, unit assumed
ESCHERICHIA COLI KNK 437 = details: E. coli KNK 437; BHI agar; unit assumed
[13] = test system: ENTEROBACTER AEROGENES ATCC 13048; assay: In vitro antibacterial activity, MIC, BHI agar dilution; details: E. aerogenes ATCC 13048, unit assumed
[14] = test system: KLEBSIELLA PNEUMONIAE ATCC 8045; assay: as above; details: K. pneumoniae ATCC 8045, unit assumed
[15] = test system: PROVIDENCIA STUARTII CMX 640; details: P. stuartii CMX 640; BHI agar; unit assumed
[16] = test system: PSEUDOMONAS AERUGINOSA BMH10; assay: In vitro antibacterial activity, MIC, BHI agar dilution; details: P. aeruginosa BMH10, unit assumed
[17] = test system: PSEUDOMONAS AERUGINOSA 5007; assay: as above; details: P. aeruginosa 5007, unit assumed
[18] = test system: PSEUDOMONAS AERUGINOSA K799/WT; assay: as above; details: P. aeruginosa K799/WT, unit assumed
[19] = test system: PSEUDOMONAS AERUGINOSA K799/61; assay: as above; details: P. aeruginosa K799/61, unit assumed
PSEUDOMONAS CEPACIA 296I = assay: as above; details: P. cepacia 296I, unit assumed
[20] = test system: ACINETOBACTER CALCOACETICUS CMX 669; assay: as above; details: A. calcoaceticus CMX 669, unit assumed
[21] = test system: PSEUDOMONAS AERUGINOSA DPHD-5263; assay: as above; details: P. aeruginosa DPHD-5263, unit assumed
[22] = test system: PSEUDOMONAS AERUGINOSA DPHD-2862; assay: as above; details: P. aeruginosa DPHD-2862, unit assumed
CANDIDA ALBICANS CCH 442 = assay: as above; details: C. albicans CCH 442, unit assumed
[23] = test system: MYCOBACTERIUM SMEGMATIS ATCC 114; assay: as above; details: M. smegmatis ATCC 114, unit assumed

Measured: MIC

CC[C@H]1OC(=O)[C@H](C)C(=O)[C@H](C)[C@@H](O[C@@H]2O[C@H](C)C[C@H](N(C)C)[C@H]2O)[C@](C)(OC)C[C@@H](C)C2=N[C@H](COCc3ccc(C(=O)OC)cc3)CN3C(=O)O[C@@]1(C)[C@H]3[C@H]2C [Example 84]
0.78 µg/mL: [23]
0.05 µg/mL: EN[…] ATCC 8043
100 µg/mL: [11]
0.02 µg/mL: STR[…] 508 | [10]
1.56 µg/mL: ESCHERICHIA COLI SS
0.39 µg/mL: [8] | M[…] ATCC 4698
> 100 µg/mL: [3] | [7] | ESCHERICHIA COLI JUHL | ESCHERICHIA COLI DC-2 | ESCHERICHIA COLI H560 | ESCHERICHIA COLI KNK 437 | [13] | [14] | [15] | [16] | [17] | [18] | PSEUDOMONAS CEPACIA 296I | [20] | [21] | [22] | CANDIDA ALBICANS CCH 442
≤ 0.005 µg/mL: [9]
0.1 µg/mL: M[…] ATCC 9341
0.2 µg/mL: [1] | [2] | [4] | [5] | [6] | [12]
3.1 µg/mL: [19]
